From ChEMBL document CHEMBL5038643, “Phytochemical Investigation of the Roots of Ipomoea asarifolia and Antiproliferative Activity of the Isolated Compounds against Multiple Myeloma Cells” (J Nat Prod, 2022)
Activity calls are given as the source filed them. No cut-off for these calls is given here.

Key:
[1] = Antiproliferative activity against dexamethasone-resistant human MM.1R cells assessed as reduction in cell viability measured after 72 hrs by XTT assay; assay type: functional, cell-based
[2] = test system: B-cell; assay: Cytotoxicity against human B lymphocyte assessed as reduction in cell viability at 50 uM measured after 72 hrs by XTT assay; assay type: toxicity, cell-based
[3] = test system: MM.1R; assay: Antiproliferative activity against dexamethasone-resistant human MM.1R cells assessed as reduction in cell viability at 10 uM measured after 72 hrs by XTT assay; assay type: functional, cell-based
[4] = test system: MM1.S; assay: Antiproliferative activity against dexamethasone-sensitive human MM.1S cells assessed as reduction in cell viability measured after 72 hrs by XTT assay; assay type: functional, cell-based
[5] = test system: MM1.S; assay: Antiproliferative activity against dexamethasone-sensitive human MM.1S cells assessed as reduction in cell viability at 10 uM measured after 72 hrs by XTT assay; assay type: functional, cell-based
[6] = test system: RPMI-8226; assay: Antiproliferative activity against human RPMI 8226 cells assessed as reduction in cell viability measured after 72 hrs by XTT assay; assay type: functional, cell-based; settings: RPMI-8226, 72 h
[7] = test system: RPMI-8226; assay: Antiproliferative activity against human RPMI 8226 cells assessed as reduction in cell viability at 10 uM measured after 72 hrs by XTT assay; assay type: functional, cell-based

Row | IC50 [4] [µM] | IC50 [6] [µM] | SMILES | IC50 [1] [µM] | Activity [2] | Activity [3] | Activity [5] | Activity [7]
1 | > 10 | 9.4 | CCCCCCCCCCCCCCCCCCOC(=O)/C=C/c1ccc(O)c(O)c1 | > 10 | Non-Toxic | inactive | inactive | –
2 | > 10 | 3 | CCCCCCCCCCCCCCCCOC(=O)/C=C/c1ccc(O)c(O)c1 | > 10 | Non-Toxic | inactive | inactive | –
3 | – | > 10 | CCCCCCCCCCCC(=O)O[C@H]1[C@H](O[C@@H]2[C@H]3OC(=O)CCCCCCCCC[C@H](CCCCC)O[C@@H]4O[C@H](C)[C@H](O)[C@H](O)[C@H]4O[C@H](O[C@H]2C)[C@@H]3O)O[C@@H](C)[C@H](O[C@@H]2O[C@@H](C)[C@H](OC(=O)CCCCCCC)[C@@H](O)[C@H]2O)[C@H]1O[C@@H]1O[C@@H](C)[C@H](O)[C@@H](O)[C@H]1O | – | – | inactive | inactive | inactive
4 | – | > 10 | C[C@H](CO)CC(=O)C[C@@H](C)CCC(=O)c1ccoc1 | – | – | inactive | inactive | –
5 | – | – | CCCCCCCCCCCCCCCCCCCCOC(=O)/C=C/c1ccc(O)cc1 | – | – | inactive | inactive | –
6 | – | – | CCCCCCCCCCCCCCCCCCOC(=O)/C=C/c1ccc(O)cc1 | – | – | inactive | inactive | –
7 | – | – | CCCCCCCCCCCCCCCCOC(=O)/C=C/c1ccc(O)cc1 | – | – | inactive | inactive | –
8 | 0.0026 | 0.0045 | CC(C)C[C@H](NC(=O)[C@H](Cc1ccccc1)NC(=O)c1cnccn1)B(O)O [BORTEZOMIB] | 0.0048 | – | inactive | inactive | –
9 | – | > 10 | CCCCCCCCCCCC(=O)O[C@H]1[C@H](O[C@@H]2[C@H]3OC(=O)CCCCCCCCC[C@H](CCCCC)O[C@@H]4O[C@H](C)[C@H](O)[C@H](O)[C@H]4O[C@H](O[C@H]2C)[C@@H]3O)O[C@@H](C)[C@H](O[C@@H]2O[C@@H](C)[C@H](OC(=O)[C@@H](C)CC)[C@@H](O)[C@H]2O)[C@H]1O[C@@H]1O[C@@H](C)[C@H](O)[C@@H](O)[C@H]1O [PESCAPREIN III] | – | – | inactive | inactive | –
10 | > 10 | 10.8 | CCCCCCCCCCCC(=O)O[C@H]1[C@H](O[C@@H]2[C@H]3OC(=O)CCCCCCCCC[C@H](CCCCC)O[C@@H]4O[C@H](C)[C@H](O)[C@H](O)[C@H]4O[C@H](O[C@H]2C)[C@@H]3O)O[C@@H](C)[C@H](O[C@@H]2O[C@@H](C)[C@H](OC(=O)CCCCC)[C@@H](O)[C@H]2O)[C@H]1O[C@@H]1O[C@@H](C)[C@H](O)[C@@H](O)[C@H]1O [PESCAPREIN IV] | > 10 | – | inactive | inactive | –
11 | – | > 10 | CCCCCCCCCC(=O)O[C@H]1[C@H](O[C@@H]2[C@H]3OC(=O)CCCCCCCCC[C@H](CCCCC)O[C@@H]4O[C@H](C)[C@H](O)[C@H](O)[C@H]4O[C@H](O[C@H]2C)[C@@H]3O)O[C@@H](C)[C@H](O[C@@H]2O[C@@H](C)[C@H](OC(=O)[C@@H](C)CC)[C@@H](OC(=O)/C=C/c3ccccc3)[C@H]2O)[C@H]1O[C@@H]1O[C@@H](C)[C@H](O)[C@@H](O)[C@H]1O [PESCAPREIN XXIII] | – | – | inactive | inactive | –
12 | – | > 10 | CCCCCCCCCCCC(=O)O[C@H]1[C@H](O[C@@H]2[C@H]3OC(=O)CCCCCCCCC[C@H](CCCCC)O[C@@H]4O[C@H](C)[C@H](O)[C@H](O)[C@H]4O[C@H](O[C@H]2C)[C@@H]3O)O[C@@H](C)[C@H](O[C@@H]2O[C@@H](C)[C@H](OC(=O)[C@@H](C)CC)[C@@H](OC(=O)/C=C/c3ccccc3)[C@H]2O)[C@H]1O[C@@H]1O[C@@H](C)[C@H](O)[C@@H](O)[C@H]1O [PESCAPREIN XXI] | – | – | inactive | inactive | –
13 | – | > 10 | CCCCCCCCCC(=O)O[C@H]1[C@H](O[C@@H]2[C@H]3OC(=O)CCCCCCCCC[C@H](CCCCC)O[C@@H]4O[C@H](C)[C@H](O)[C@H](O)[C@H]4O[C@H](O[C@H]2C)[C@@H]3O)O[C@@H](C)[C@H](O[C@@H]2O[C@@H](C)[C@H](OC(=O)C(C)C)[C@@H](OC(=O)/C=C/c3ccccc3)[C@H]2O)[C@H]1O[C@@H]1O[C@@H](C)[C@H](O)[C@@H](O)[C@H]1O [PESCAPREIN XXVI] | – | – | inactive | inactive | –
14 | – | > 10 | CCCCCCCCCCCC(=O)O[C@H]1[C@H](O[C@@H]2[C@H]3OC(=O)CCCCCCCCC[C@H](CCCCC)O[C@@H]4O[C@H](C)[C@H](O)[C@H](O)[C@H]4O[C@H](O[C@H]2C)[C@@H]3O)O[C@@H](C)[C@H](O[C@@H]2O[C@@H](C)[C@H](OC(=O)C(C)C)[C@@H](OC(=O)/C=C/c3ccccc3)[C@H]2O)[C@H]1O[C@@H]1O[C@@H](C)[C@H](O)[C@@H](O)[C@H]1O [PESCAPREIN XXV] | – | – | inactive | inactive | –
15 | > 10 | 7.7 | CCCCCCCCCC(=O)O[C@H]1[C@H](O[C@@H]2[C@H]3OC(=O)CCCCCCCCC[C@H](CCCCC)O[C@@H]4O[C@H](C)[C@H](O)[C@H](O)[C@H]4O[C@H](O[C@H]2C)[C@@H]3O)O[C@@H](C)[C@H](O[C@@H]2O[C@@H](C)[C@H](OC(=O)[C@@H](C)CC)[C@@H](O)[C@H]2O)[C@H]1O[C@@H]1O[C@@H](C)[C@H](O)[C@@H](O)[C@H]1O [STOLONIFERIN III] | > 10 | – | inactive | inactive | –
